Measured values: patent US12496298B2, “Natural killer cells” (Imperial College Innovations Limited, priority 2017, dated 2025)

What was measured:
E4bp4 = experiment: RT-qPCR relative expression of E4bp4 in cultured HPCs; assay type: cell-based, mouse
Experimental: (§1) FIG. 8: HPCs were cultured with or without 5 μM SR8278 added on Day 2. At Day 3, 4 and 5, cells were harvested in order to quantify their relative […] by RT-qPCR. The graphs show relative expression of (A) E4bp4, (B) Id2 and (C) Eomes normalized to the housekeeping gene, Hprt.
(§2) HPCs isolated from a WT mouse were cultured as previously (FIG. 2) but the cells were harvested and analysed using RT-qPCR on Day 3, 4 and 5. The relative expression of the E4bp4, Id2 and Eomes genes was compared to the housekeeping gene, Hprt. At Day 4, E4bp4, Id2 and Eomes expression was higher in SR8278 treated samples when compared to the ‘No drug’ control (FIG. 8). The increase in E4bp4 expression disappeared at Day 5 but the increase of Id2 expression remained (FIG. 8B). The upregulation of E4bp4 and its downstream targets happens in a matter of hours and only stays high for a defined period of time.
(§3) RNA was extracted using Qiagen RNeasy Micro Kit according to the manufacture's protocol (Qiagen). Centrifugation was done at 8000 g for 15 seconds and the flow through discarded. Briefly, 350 μl of Buffer RLT+10% β-Mercaptoethanol were added to the harvested cells. […] The concentration of RNA in each sample was measured using Nanodrop, and all samples were diluted to the same working concentration. […]

Eomes = experiment: RT-qPCR relative expression of Eomes in cultured HPCs; assay type: cell-based, mouse; settings: 5 μM added Day 2, harvested Day 4
Experimental: as §1, §2, §3

Id2 = experiment: RT-qPCR relative expression of Id2 in cultured HPCs; assay type: cell-based, mouse
Experimental: as §1, §2, §3

HPCs = experiment: Live cells / toxicity in mouse HPC culture under NK cell-producing conditions; assay type: cell-based
Experimental: FIG. […] At Day 9, percentage of NK cells was quantified using flow cytometry. (A) Graph showing relative mature mouse NK cell (NK1.1+ CD3−) production when 5 and 10 μM SR8278 were added on different days compared to the ‘No drug’ control. (B) Representative flow cytometry results with percentage of NK cells shown. Addition of 5 μM SR8278 is shown on the top, whereas addition of 10 μM SR8278 is shown on the bottom. […] Results were averaged from two experiments with four repeats each and the error bars represent the mean+SD. Asterisks indicate significant differences from the two annotated results (* is P≤0.01, *** is P≤0.0001 and **** is P≤0.00001) based on Mann-Whitney test.
The HPCs were plated and cultured in 24-well plates at a concentration of 5×10^5 HPCs/well in 1 ml of complete cytokine medium (Dulbecco's modified eagle medium (DMEM) (Sigma Aldrich), 10% FCS, 50 μM β-Mercaptoethanol, 10 ng/ml Flt3-ligand (FIt3L) (R&D Systems), 10 ng/ml IL-7 (R&D Systems), 100 ng/ml stem cell factor (SCF) (R&D Systems) and 1% P/S) for 2 days at 37° C., 5% CO2. […]
Cells to be analysed by flow cytometry were passed through 40 μm cell strainers to remove clumps and washed with PBS buffer, centrifuged at 800 g for 2 minutes and resuspended in 100 μl fluorescent activated cell sorting (FACS) buffer (PBS plus 1% BSA) with appropriate fluorochrome conjugated antibodies at a dilution of 1 in 300. […]

[1] = 5 μM added Day 2, harvested Day 4
[2] = 5 μM added Day 2, harvested Day 5

CCOC(=O)C1Cc2ccccc2CN1C(=O)c1ccc(SC)s1 (stereo not shown) [SR8278, 1,2,3,4-Tetrahydro-2-[[5-(methylthio)-2-thienyl]carbonyl]-3-isoquinolinecarboxylic acid ethyl ester]
E4bp4 expression relative to Hprt, compared to 'No drug' control (E4bp4; [1]): higher
increase in E4bp4 expression (E4bp4; [2]): disappeared
Eomes expression relative to Hprt, compared to 'No drug' control (Eomes): higher
Id2 expression relative to Hprt, compared to 'No drug' control (Id2; [1]): higher
increase of Id2 expression (Id2; [2]): remained
toxicity to cells in culture (HPCs; 20 μM): toxic and killed most of the cells
numbers of live cells compared to 'No drug' control (HPCs; added at Days 0 and 1, 5 and 10 μM): remarkably low
